Test results published in patent US20050154537A1, “Methods, program products, and systems for single and multi-agent dosing and other related methods” (priority 2003, published 2005).

Columns and labels:
Assay type in all cases: in vivo
Neutrophil Count (ANC) [1] = assay: Chemotherapeutic triplet cycle dose modifier (Taxol, Gemzar, Carboplatin), toxicity marker; details: patient on triplet
Text: Table 3 illustrates a method of revising a drug dose in treating a patient with three pharamcologic and non-pharmacological modalities to optimize pharmacologic outcome, e.g., to reduce risk of an adverse drug event while assessing the clinical relevancy and validity of the measured surrogate markers. Previous Level of Toxicity-Efficacy (PLTE) is a value directly entered such as from a lab report. It is the numerical value of the marker of toxicity or efficacy reported at the previous dose cycle adjustment (evaluated at a specified elapsed time sufficient to capture the nadir of the dose effect). The surrogate marker is selected when the dose modifier is constructed. Current Level of Toxicity-Efficacy (CLTE) is a value directly entered such as from a lab report. It is the numerical value of the marker of toxicity or efficacy reported with the current dose cycle. The surrogate marker is that value that illustrates the expression of the toxicity or efficacy of the agent on a specific and pre-selected value determined when the dose modifier is constructed. […] If valid the value is fully appreciated and the dose modification can be calculated. […] The range, in days and indicated as the Lower Limit and Upper limit, has been determined by calculating a percentage (20%) above and below the true nadir value when only a single value is known. […]

Neutrophil Count (ANC) [2] = assay: Lookup table: marker validity (nadir) window, Neutrophil Count (ANC); details: days elapsed between current dose and marker
Text: (§1) A lookup table has been constructed (see above example), in the form of a table, to represent the relationship of each trial Agent and its qualified Clinical Markers. This table includes information regarding the Maximum Dose and the Inverse Marker Applicability for each Agent. The gray cells on the Cycle Dose Modifier indicate these values.
(§2) The table also includes information regarding the nadir of applicability for each Agent—Marker combination. The range, in days and indicated as the Lower Limit and Upper limit, has been determined by calculating a percentage (20%) above and below the true nadir value when only a single value is known. Otherwise, the upper and lower nadir values are used. […] The values of Upper and Lower limits is shown as a property of the Association between Markers and Agents. The Relevancy of a Marker can be computed using the lookup table by comparing the number of days elapsed between the date of the application of the current dose and the date on which the Marker was taken to the upper and lower values for that Agent Marker Association. If the elapsed days are greater than or equal to the lower limit and less than or equal to the upper limit, then the calculations provided by the Cycle Dose Modifier are said to be relevant and thereby applicable as indicated in the yellow Marker Validity cell. The Relevancy of Cycle Dose Modifier Calculations for Agent 1 is based on the Validity of Marker for Agent 1 calculated by: =IF(and((($B13−B6)>=VLOOKUP(B$3,Validity!$A$3:$K$8,10)),((B$13−B6)<=VLOOKUP(B$3,Validity!$A$3:$K$8,11))),“valid”,“invalid”)

Hemoglobin (Hgb) = assay: Lookup table: marker validity (nadir) window, Hemoglobin (Hgb); details: days elapsed between current dose and marker
Text: as §1, §2

Platelets = assay: Lookup table: marker validity (nadir) window, Platelets; details: days elapsed between current dose and marker
Text: as §1, §2

**Q.** Which results are given for CC(=O)O[C@H]1C(=O)[C@@]2(C)[C@H]([C@H](OC(=O)c3ccccc3)[C@]3(O)C[C@H](OC(=O)[C@H](O)[C@@H](NC(=O)c4ccccc4)c4ccccc4)C(C)=C1C3(C)C)[C@]1(OC(C)=O)CO[C@@H]1C[C@@H]2O [Taxol]?
**A.** Current Level of Toxicity/CLTEM1 (Neutrophil Count (ANC) [1]; current cycle total dose Taxol 450.00, Gemzar 7000.00, Carboplatin 650.00, marker Oct. 30, 2004): 0.80; Previous Level of Toxicity/PLTEM1 (Neutrophil Count (ANC) [1]; previous cycle total dose Taxol 400.00, Gemzar 8000.00, Carboplatin 600.00): 0.40; Neutrophil Count (ANC) LL (Neutrophil Count (ANC) [2]; lower limit of nadir range): 8 days; Neutrophil Count (ANC) UL (Neutrophil Count (ANC) [2]; upper limit of nadir range): 11 days; Hemoglobin (Hgb) LL (Hemoglobin (Hgb); lower limit of nadir range): 8 days; Hemoglobin (Hgb) UL (Hemoglobin (Hgb); upper limit of nadir range): 11 days; Platelets LL (Platelets; lower limit of nadir range): 8 days; Platelets UL (Platelets; upper limit of nadir range): 11 days
